{"source": "ChEMBL document CHEMBL3399984", "about": "“Identification of Bacillus anthracis PurE inhibitors with antimicrobial activity” (Bioorg Med Chem, 2015)", "key": {"[1]": {"tested_on": "Yersinia pestis", "assay": "Antimicrobial activity against Yersinia pestis BEI/ATCC A1122 measured after overnight incubation", "type": "functional"}, "[2]": {"tested_on": "Bacillus anthracis", "assay": "Inhibition of recombinant Bacillus anthracis PurE assessed as inhibition of 4-carboxy-amino-imidazole ribonucleotide to N5-carboxy-amino-imidazole ribonucleotide conversion preincubated for 1.5 mins at 10 uM by mass spectrometry analysis"}, "[3]": {"tested_on": "Bacillus anthracis", "assay": "Antimicrobial activity against Bacillus anthracis deltaANR measured after overnight incubation", "type": "functional"}, "[4]": {"tested_on": "Francisella tularensis", "assay": "Antimicrobial activity against Francisella tularensis BEI/ATCC UTAH 112 measured after overnight incubation", "type": "functional"}, "[5]": {"tested_on": "Bacillus anthracis", "assay": "Inhibition of recombinant Bacillus anthracis PurE assessed as change in melting temperature at 100 uM after 10 to 30 mins by high-throughput thermal shift screening"}, "[6]": {"tested_on": "Staphylococcus aureus", "assay": "Antimicrobial activity against methicillin-resistant Staphylococcus aureus ATCC 43300 measured after overnight incubation", "type": "functional"}, "[7]": {"tested_on": "Bacillus anthracis", "assay": "Ratio of MBC to MIC for against Bacillus anthracis deltaANR measured after 72 hrs", "type": "functional"}, "[8]": {"assay": "Ratio of MIC for Francisella tularensis BEI/ATCC UTAH 112 to MIC for Bacillus anthracis deltaANR", "type": "functional"}, "[9]": {"tested_on": "Bacillus anthracis", "assay": "Bactericidal activity against Bacillus anthracis deltaANR measured after 72 hrs", "type": "functional"}, "[10]": {"tested_on": "Staphylococcus aureus", "assay": "Antimicrobial activity against methicillin-sensitive Staphylococcus aureus ATCC 29213 measured after overnight incubation", "type": "functional"}, "[11]": {"tested_on": "Escherichia coli", "assay": "Antimicrobial activity against TolC-deficient Escherichia coli BW25113 measured after overnight incubation", "type": "functional"}, "[12]": {"assay": "Ratio of MIC for Yersinia pestis BEI/ATCC A1122 to MIC for Bacillus anthracis deltaANR", "type": "functional"}, "[13]": {"assay": "Binding affinity to Gallus gallus PurE"}, "[14]": {"assay": "Binding affinity to Escherichia coli PurE"}}}
{"compound": "O=C(Nc1cccc(C(F)(F)F)c1)N1CCN(c2ccc3nncn3n2)CC1", "values": [{"measurement": "MIC", "setting": "[1]", "value": "> 12.5", "unit": "µg/mL"}, {"measurement": "inhibition", "setting": "[2]", "value": 14, "unit": "%"}, {"measurement": "MIC", "setting": "[3]", "value": "> 12.5", "unit": "µg/mL"}, {"measurement": "MIC", "setting": "[4]", "value": "> 12.5", "unit": "µg/mL"}, {"measurement": "ΔTm", "setting": "[5]", "value": 3.1, "unit": "°C"}]}
{"compound": "COc1ccc(Cl)c(C(=O)Nc2nnc(-c3ccc(Br)cc3)o2)c1", "values": [{"measurement": "MIC", "setting": "[6]", "value": 3.13, "unit": "µg/mL"}, {"measurement": "MBC/MIC ratio", "setting": "[7]", "value": "> 4", "unit": "µg/mL"}, {"measurement": "Ratio", "setting": "[8]", "value": 10}, {"measurement": "MBC", "setting": "[9]", "value": "> 12.5", "unit": "µg/mL"}, {"measurement": "MIC", "setting": "[1]", "value": 3.1, "unit": "µg/mL"}, {"measurement": "inhibition", "setting": "[2]", "value": 15, "unit": "%"}, {"measurement": "MIC", "setting": "[3]", "value": 0.78, "unit": "µg/mL"}, {"measurement": "MIC", "setting": "[4]", "value": 1.2, "unit": "µg/mL"}, {"measurement": "MIC", "setting": "[10]", "value": 1.56, "unit": "µg/mL"}, {"measurement": "MIC", "setting": "[11]", "value": 0.39, "unit": "µg/mL"}, {"measurement": "ΔTm", "setting": "[5]", "value": 1.4, "unit": "°C"}, {"measurement": "Ratio", "setting": "[12]", "value": 10}]}
{"compound": "O=C(NCc1c(-c2ccc(Cl)cc2)nc2n1CCS2)c1cccs1", "values": [{"measurement": "MIC", "setting": "[1]", "value": "> 12.5", "unit": "µg/mL"}, {"measurement": "inhibition", "setting": "[2]", "value": 11, "unit": "%"}, {"measurement": "MIC", "setting": "[3]", "value": "> 12.5", "unit": "µg/mL"}, {"measurement": "MIC", "setting": "[4]", "value": "> 12.5", "unit": "µg/mL"}, {"measurement": "ΔTm", "setting": "[5]", "value": 4.7, "unit": "°C"}]}
{"compound": "NS(=O)(=O)c1ccc(NC(=O)CSc2nnc(-c3ccccc3)o2)cc1", "values": [{"measurement": "inhibition", "setting": "[2]", "value": 12, "unit": "%"}, {"measurement": "MIC", "setting": "[3]", "value": "> 12.5", "unit": "µg/mL"}, {"measurement": "ΔTm", "setting": "[5]", "value": 1.5, "unit": "°C"}]}
{"compound": "COc1cccc(-c2nc(Cn3nnc(C(=O)NCc4ccc(Cl)cc4)c3N)c(C)o2)c1OC", "values": [{"measurement": "inhibition", "setting": "[2]", "value": 6, "unit": "%"}, {"measurement": "MIC", "setting": "[3]", "value": "> 12.5", "unit": "µg/mL"}, {"measurement": "MIC", "setting": "[4]", "value": "> 12.5", "unit": "µg/mL"}, {"measurement": "ΔTm", "setting": "[5]", "value": 1.2, "unit": "°C"}]}
{"compound": "Cc1ccc(C)c(-c2nnc(NC(=O)c3cccc(Cl)c3)o2)c1", "values": [{"measurement": "MIC", "setting": "[6]", "value": "> 12.5", "unit": "µg/mL"}, {"measurement": "MBC/MIC ratio", "setting": "[7]", "value": "> 4", "unit": "µg/mL"}, {"measurement": "Ratio", "setting": "[8]", "value": 10}, {"measurement": "MBC", "setting": "[9]", "value": "> 12.5", "unit": "µg/mL"}, {"measurement": "MIC", "setting": "[1]", "value": "> 12.5", "unit": "µg/mL"}, {"measurement": "inhibition", "setting": "[2]", "value": 19, "unit": "%"}, {"measurement": "MIC", "setting": "[3]", "value": 0.1, "unit": "µg/mL"}, {"measurement": "MIC", "setting": "[4]", "value": 6.3, "unit": "µg/mL"}, {"measurement": "MIC", "setting": "[10]", "value": 0.2, "unit": "µg/mL"}, {"measurement": "MIC", "setting": "[11]", "value": 0.02, "unit": "µg/mL"}, {"measurement": "ΔTm", "setting": "[5]", "value": 2.4, "unit": "°C"}, {"measurement": "Ratio", "setting": "[12]", "value": 10}]}
{"compound": "Cc1c(C(=O)Nc2nnc(-c3cc(Cl)ccc3Cl)o2)c(-c2ccccc2)nc2ccccc12", "values": [{"measurement": "MIC", "setting": "[6]", "value": 6.25, "unit": "µg/mL"}, {"measurement": "MBC/MIC ratio", "setting": "[7]", "value": "> 4", "unit": "µg/mL"}, {"measurement": "Ratio", "setting": "[8]", "value": 10}, {"measurement": "MBC", "setting": "[9]", "value": "> 12.5", "unit": "µg/mL"}, {"measurement": "MIC", "setting": "[1]", "value": "> 12.5", "unit": "µg/mL"}, {"measurement": "inhibition", "setting": "[2]", "value": 19, "unit": "%"}, {"measurement": "MIC", "setting": "[3]", "value": 0.1, "unit": "µg/mL"}, {"measurement": "MIC", "setting": "[4]", "value": 3.1, "unit": "µg/mL"}, {"measurement": "MIC", "setting": "[10]", "value": "> 12.5", "unit": "µg/mL"}, {"measurement": "MIC", "setting": "[11]", "value": 0.39, "unit": "µg/mL"}, {"measurement": "ΔTm", "setting": "[5]", "value": 7.9, "unit": "°C"}, {"measurement": "Ratio", "setting": "[12]", "value": 10}]}
{"compound": "O=C(Oc1ccccc1)Oc1ccc(N(C(=O)Oc2ccccc2)S(=O)(=O)c2ccc3ccccc3c2)cc1Br", "values": [{"measurement": "inhibition", "setting": "[2]", "value": 28, "unit": "%"}, {"measurement": "MIC", "setting": "[3]", "value": "> 12.5", "unit": "µg/mL"}, {"measurement": "ΔTm", "setting": "[5]", "value": 5.2, "unit": "°C"}]}
{"compound": "Cc1ccc(C)c(-c2nnc(NC(=O)c3cc(Cl)sc3Cl)o2)c1", "values": [{"measurement": "MIC", "setting": "[6]", "value": 1.95, "unit": "µg/mL"}, {"measurement": "MBC/MIC ratio", "setting": "[7]", "value": "> 4", "unit": "µg/mL"}, {"measurement": "Ratio", "setting": "[8]", "value": 10}, {"measurement": "MBC", "setting": "[9]", "value": "> 12.5", "unit": "µg/mL"}, {"measurement": "MIC", "setting": "[1]", "value": 3.1, "unit": "µg/mL"}, {"measurement": "inhibition", "setting": "[2]", "value": 20, "unit": "%"}, {"measurement": "MIC", "setting": "[3]", "value": 0.05, "unit": "µg/mL"}, {"measurement": "MIC", "setting": "[4]", "value": 1.6, "unit": "µg/mL"}, {"measurement": "MIC", "setting": "[10]", "value": 0.78, "unit": "µg/mL"}, {"measurement": "MIC", "setting": "[11]", "value": 0.07, "unit": "µg/mL"}, {"measurement": "ΔTm", "setting": "[5]", "value": 1.1, "unit": "°C"}, {"measurement": "Ratio", "setting": "[12]", "value": 10}]}
{"compound": "CC(=O)NC[C@H]1CN(c2ccc(N3CCOCC3)c(F)c2)C(=O)O1", "note": "[LINEZOLID]", "values": [{"measurement": "MIC", "setting": "[4]", "value": 32, "unit": "µg/mL"}]}
{"compound": "O=C(O)c1cn(C2CC2)c2cc(N3CCNCC3)c(F)cc2c1=O", "note": "[CIPROFLOXACIN]", "values": [{"measurement": "MIC", "setting": "[6]", "value": 0.34, "unit": "µg/mL"}, {"measurement": "MIC", "setting": "[1]", "value": 0.04, "unit": "µg/mL"}, {"measurement": "MIC", "setting": "[3]", "value": 0.11, "unit": "µg/mL"}, {"measurement": "MIC", "setting": "[4]", "value": 0.03, "unit": "µg/mL"}, {"measurement": "MIC", "setting": "[10]", "value": 0.35, "unit": "µg/mL"}]}
{"compound": "O=C(Cc1ccc(NC(=O)c2ccc(F)cc2Cl)cc1)NCc1cccs1", "values": [{"measurement": "MIC", "setting": "[1]", "value": "> 12.5", "unit": "µg/mL"}, {"measurement": "inhibition", "setting": "[2]", "value": 20, "unit": "%"}, {"measurement": "MIC", "setting": "[3]", "value": "> 12.5", "unit": "µg/mL"}, {"measurement": "MIC", "setting": "[4]", "value": "> 12.5", "unit": "µg/mL"}, {"measurement": "ΔTm", "setting": "[5]", "value": 1.8, "unit": "°C"}]}
{"compound": "Nc1c([N+](=O)[O-])ncn1[C@@H]1O[C@H](COP(=O)(O)O)[C@@H](O)[C@H]1O", "values": [{"measurement": "inhibition", "setting": "[2]", "value": 24, "unit": "%"}, {"measurement": "Ki", "setting": "[13]", "value": 0.34, "unit": "nM"}, {"measurement": "Ki", "setting": "[14]", "value": 500, "unit": "nM"}, {"measurement": "ΔTm", "setting": "[5]", "value": 5.6, "unit": "°C"}]}
{"compound": "Cc1sc2ccsc2[n+]1CC(=O)O.[Br-]", "values": [{"measurement": "MIC", "setting": "[1]", "value": "> 12.5", "unit": "µg/mL"}, {"measurement": "inhibition", "setting": "[2]", "value": 17, "unit": "%"}, {"measurement": "MIC", "setting": "[3]", "value": "> 12.5", "unit": "µg/mL"}, {"measurement": "MIC", "setting": "[4]", "value": "> 12.5", "unit": "µg/mL"}, {"measurement": "ΔTm", "setting": "[5]", "value": 4.4, "unit": "°C"}]}
{"compound": "CCCCC(CC)CNc1nc2c(c(=O)[nH]c(=O)n2C)n1CC(O)COc1ccc(C)c(C)c1", "note": "(stereo unspecified)", "values": [{"measurement": "inhibition", "setting": "[2]", "value": 7, "unit": "%"}, {"measurement": "MIC", "setting": "[4]", "value": "> 12.5", "unit": "µg/mL"}, {"measurement": "ΔTm", "setting": "[5]", "value": 1.8, "unit": "°C"}]}
{"compound": "COc1cccc(C(=O)Nc2ccc(-c3cn4ccsc4n3)cc2)c1OC", "values": [{"measurement": "MIC", "setting": "[1]", "value": "> 12.5", "unit": "µg/mL"}, {"measurement": "inhibition", "setting": "[2]", "value": 17, "unit": "%"}, {"measurement": "MIC", "setting": "[3]", "value": "> 12.5", "unit": "µg/mL"}, {"measurement": "MIC", "setting": "[4]", "value": "> 12.5", "unit": "µg/mL"}, {"measurement": "ΔTm", "setting": "[5]", "value": 3, "unit": "°C"}]}
